The nature of experiment [1]: Calcium Scale Inhibitor Test (NACE test method TM-03-74), calcium carbonate scale. The note with it: for Percent Inhibition at 24 Hrs. / Percent Inhibition at 48 Hrs. / Percent Inhibition at 72 Hrs.: 10 ppm based on active acid content; for threshold activity (in words): threshold agent, less than stoichiometric amounts. As to the method: To show the utility of the above compounds as scale inhibitors, the following test was run.
Calcium Scale Inhibitor Test
The compounds were evaluated as scale inhibitors for calcium carbonate scale according to National Association of Corrosion Engineers (NACE) test method TM-03-74. Note the dramatic improvement of the phosphonic acids prepared from the bis(aminoethyl)piperazine and bis(aminopropyl)piperazine compounds of this invention when compared to aminoethylpiperazinetrimethylenephosphonic acid taught in the U.S. patent literature as a good scale inhibition compound.
*ppm based on active acid content

The nature of experiment [2]: Titration with standard copper solution in the presence of chrome azurol-S indicator (sequestering/chelating). The note with it: titrated with standard copper solution. The text has this:
The compounds of this invention can also function as sequestering/chelating agents. For example, compounds were titrated with standard copper solution in the presence of chrome azurol-S indicator. The compound of Example 9 complexed about one mole of copper per mole of ligand. […] The compound of Example 3 was titrated and found to complex approximately three moles of copper per mole of ligand. The compound can function as either a threshold compound or a chelating agent.

Entries after “also recorded” stand apart in the source; their conditions may differ. Counter-ions that a name gives are not always drawn.

On to `O=C(O)CN(CCN1CCN(CCN(CP(=O)(O)O)CP(=O)(O)O)CC1)CP(=O)(O)O` [Example 5], for which, in experiment [1], the “Percent Inhibition at 24 Hrs.” value was 96%, the “Percent Inhibition at 48 Hrs.” value was found to be 89% and the “Percent Inhibition at 72 Hrs.” value is recorded as 83%.

Consider `O=P(O)(O)CN1CCN(CCN(CP(=O)(O)O)CP(=O)(O)O)CC1` [Example A, aminoethylpiperazine trimethylenephosphonic acid, reference compound], for which, in experiment [1], the “Percent Inhibition at 24 Hrs.” value amounted to 77%, the “Percent Inhibition at 48 Hrs.” value was found to be 65%, the “Percent Inhibition at 72 Hrs.” value is reported as 60% and the “threshold activity (in words)” value was “not have very good threshold activity”.

With `CC(O)CN(CCN1CCN(CCN(CP(=O)(O)O)CP(=O)(O)O)CC1)CP(=O)(O)O` (stereo not shown) [Example 8], in experiment [1], the “Percent Inhibition at 24 Hrs.” value is 79%, the “Percent Inhibition at 48 Hrs.” value came to 77% and the “Percent Inhibition at 72 Hrs.” value came to 73%.

`O=P(O)(O)CNCCCN1CCN(CCCN(CP(=O)(O)O)CP(=O)(O)O)CC1` [Example 2]: in experiment [1], the “Percent Inhibition at 24 Hrs.” value is 99%, the “Percent Inhibition at 48 Hrs.” value was 93% and the “Percent Inhibition at 72 Hrs.” value is recorded as 91%.

As for `O=P(O)(O)CN(CCCN1CCN(CCCN(CP(=O)(O)O)CP(=O)(O)O)CC1)CC(O)CS(=O)(=O)O` (stereo not shown) [Example 7], in experiment [1], the “Percent Inhibition at 24 Hrs.” value worked out at 92%, the “Percent Inhibition at 48 Hrs.” value is 77% and the “Percent Inhibition at 72 Hrs.” value was 79%.

Turning to `O=P(O)(O)CN(CCN1CCN(CCN(CP(=O)(O)O)CP(=O)(O)O)CC1)CP(=O)(O)O` [Example 3], in experiment [1], the “Percent Inhibition at 24 Hrs.” value was found to be 99%, the “Percent Inhibition at 48 Hrs.” value came out at 91% and the “Percent Inhibition at 72 Hrs.” value came out at 89%. Besides, the “copper complexed per mole of ligand” value in experiment [2] is listed as “approximately three”.

As for `O=P(O)(O)CN(CCN1CCN(CCN(CP(=O)(O)O)CP(=O)(O)O)CC1)CC(O)CS(=O)(=O)O` (stereo not shown) [Example 6], in experiment [1], the “Percent Inhibition at 24 Hrs.” value is 85%, the “Percent Inhibition at 48 Hrs.” value was 73% and the “Percent Inhibition at 72 Hrs.” value is recorded as 75%.

Regarding `O=C(O)CN(CCN1CCN(CCN(CC(=O)O)CC(=O)O)CC1)CC(=O)O` [Example 9, tetrasodium salt of bis(aminoethyl)piperazine-tetraacetic acid], in experiment [1], the “Percent Inhibition at 24 Hrs.” value was determined as 55%, the “Percent Inhibition at 48 Hrs.” value is reported as 51%, the “Percent Inhibition at 72 Hrs.” value stood at 50% and the “threshold activity (in words)” value was “not a good threshold compound; also recorded: ineffective as a threshold compound”. The “copper complexed per mole of ligand” value in experiment [2] is “about one”.

In the case of `O=P(O)(O)CN(CCCN1CCN(CCCN(CP(=O)(O)O)CP(=O)(O)O)CC1)CP(=O)(O)O` [Example 1, completely phosphonomethylated bis(aminopropyl)piperazine], in experiment [1], the “Percent Inhibition at 24 Hrs.” value was determined as 99%, the “Percent Inhibition at 48 Hrs.” value was 93% and the “Percent Inhibition at 72 Hrs.” value worked out at 90%.

Regarding `O=P(O)(O)CNCCN1CCN(CCN(CP(=O)(O)O)CP(=O)(O)O)CC1` [Example 4], in experiment [1], the “Percent Inhibition at 24 Hrs.” value is recorded as 97%, the “Percent Inhibition at 48 Hrs.” value is 87% and the “Percent Inhibition at 72 Hrs.” value worked out at 79%.

The values above are taken from US4680396A, “Bis(aminoalkyl)piperazine derivatives and their use as metal ion control agents” (The Dow Chemical Company, priority 1984, dated 1987).
